In PMC5078090, “In vivo screening and discovery of novel candidate thalidomide analogs in the zebrafish embryo and chicken embryo model systems” (Oncotarget, 2016):
Entries after “also recorded” stand apart in the source; their conditions may differ.

Experiments:
[1] = tested on: fli1:EGFP zebrafish embryos; assay: fli1:EGFP zebrafish embryo angiogenesis assay (intersegmental vessel outgrowth and number); type: in vivo; conditions: for minimal effective concentration: Danio rerio, 24 h, 24 hpf embryos exposed 24 h, screened 1-200 μg/mL, where no activity was seen the concentration shown is the lowest screened; for Anti-angiogenic activity (loss of ISVs or inhibition of ISV outgrowth): fli1:EGFP embryos, 24 h incubation, result in words
Description: To determine if our novel thalidomide analogs (Figure 1) had any effect on in vivo angiogenesis, we used fli1:EGFP embryos which express green fluorescent protein (GFP) on endothelial cells throughout development. Embryos were allowed to develop for 24 hours, then exposed to either vehicle or a compound of interest at the concentration range of 1 to 200 μg/mL. During this time the vasculature is rapidly expanding and developing new, naive intersegmental vessels (ISVs). The embryos were imaged after 24 hours of incubation with the drug (Figure 2A). […] We also observed that the potency of each compound varied.
Figure 2 The effect of novel thalidomide analogs on vessel length fli1:EGFP zebrafish were incubated with vehicle or compounds for 24 hours, at which point vessel outgrowth and number were measured. A. Images of zebrafish exposed to the vehicle or test compounds. […] Treatment with C4 (1.5 μg/mL), C18 (50 μg/mL), C81 (50 μg/mL), C82 (5 μg/mL), C83 (20 μg/mL) and C84 (50 μg/mL) show reduction in vessel out growth (white arrow) and in some cases loss of vessel (white asterisks). B. Stalk length & C. stalk number are reduced. Compounds are shown at the lowest concentration producing an effect. The data represent the mean + the standard error of the mean.
Zebrafish embryos were treated with analogs as previously described. Briefly, fli1:EGFP embryos were collected and embryos were allowed to develop for 24 hours. Embryos were dechorionated manually and exposed to test compounds or vehicle control (0.1% DMSO) for a further 24 hours. Embryos were anesthetized with 0.05% MS222 (Tricaine) (Sigma Aldrich) and live visualization of blood vessels was carried out.
(§1) A broad series of novel thalidomide-based compounds were chemically synthesized (WL, NHG and WDF, NIH), dissolved in DMSO, stored in stock concentrations between 10-100 mg/mL, and used at a final working DMSO concentration of 0.1%. The chemical structures of lead compounds of interest were confirmed by chemical characterization (purity >99.5%). Compounds were screened across a range of concentrations from 1-200 μg/mL to determine the lowest effective concentration.

[2] = tested on: TNF-α; design: method as in PMID 22642825, PMID 22277195; conditions: rats challenged with systemic LPS; cited from earlier work
[3] = tested on: chicken embryos; assay: In ovo chicken embryo teratogenicity assay; type: in vivo, white leghorn chicken; conditions: for Defects in chicken embryo development (text and figure legend): applied at HH stage 17-18, result in words; for Teratogenicity in these assays: chicken and zebrafish embryo assays together, result in words
Description: Compounds of interest were screened in chicken and/or zebrafish embryos (Figure 4), to determine if these compounds are teratogenic. The chicken embryo is well established as a model to determine the action of compounds upon development.
Fertilized white leghorn chicken embryos were incubated at 38°C and staged according to the Hamburger and Hamilton (HH) stages of development. Embryos were tested at HH stage 17-18 (day 2.5). Following membrane removal test compounds or vehicle control solutions were applied over the embryo. The eggs were sealed and the development of the embryos was monitored up to HH stage 30 (E9). A minimum of 3 embryos were used per concentration, per drug.

[4] = tested on: Tg(MPO::EGFP)^114 zebrafish; assay: Tg(MPO::EGFP)^114 zebrafish tail fin clip assay of neutrophil migration to the wound site; type: in vivo; conditions: for minimal effective concentration: Danio rerio, Neutrophil, fin clipped at 72 hpf, imaged at 24 h, screened 1-200 μg/mL, where no activity was seen the concentration shown is the lowest screened; for Effect on neutrophil migration to the wound site (anti-inflammatory activity): fin clipped 72 hpf embryos, result in words
Description: To assess the immunomodulatory effects of the thalidomide analogs across the concentration range used in the previous assay, the transgenic zebrafish line Tg(MPO::EGFP)^114 was used. These embryos express GFP tagged myeloperoxidase, marking neutrophils during the inflammatory response, for example following injury. […] This allowed us to subsequently assess the anti-inflammatory activity of each compound by immersing embryos in the test drug or vehicle. The embryos were examined for migration of neutrophils to the wound site. In comparison to control embryos (Figure 3A) compounds with anti-inflammatory properties had reduction of at least 50% of neutrophils recruited to the wound site (Figure 3). […] We also screened the previously identified six anti-angiogenic compounds of interest in the Tg(MPO::EGFP)^114 line.
Figure 3 The effect of thalidomide analogs on the inflammatory response to wound healing A. Zebrafish (72 hpf) embryos transgenic for a fluorescently tagged neutrophil marker Tg(MPO::EGFP)^114 were fin clipped to induce an inflammatory response and exposed to vehicle or a test compound. Broken line indicates the tail fin with cut and area of the wound site. […] The data represent the mean + the standard error of the mean.
Tg(MPO::EGFP)^114 embryos were tail fin clipped as previously detailed and incubated with test compounds or vehicle control at 72 hpf. Fish were imaged at 24 hours and the number of migratory neutrophils present at the wound site were counted. Compounds inducing an at least 50% reduction of neutrophils to the wound site were considered to have anti-inflammatory properties in this system. All larvae were assessed for viability and morphological integrity. A minimum of 10 embryos were used per concentration per drug. Error bars represent standard error of the mean.
as §1

[5] = tested on: TNF-α; design: method as in PMID 22642825, PMID 22277195; conditions: cited from earlier work
[6] = tested on: WT Zebrafish; assay: WT zebrafish embryo developmental defect (teratogenicity) screen; type: in vivo; conditions: for Lowest effective concentration, WT Zebrafish assay: screened 1-200 μg/mL, where no activity was seen the concentration shown is the lowest screened

Compound | minimal effective concentration [1] [µg/mL] | Anti-angiogenic activity (loss of ISVs or inhibition of ISV outgrowth) [1] | Effect on LPS-induced elevations in TNF-α, plasma and brain of rats [2] | Lowest effective concentration, Chicken assay ([3]; HH stage 17-18 embryos, where no activity was seen the concentration shown is the lowest screened) [µg/mL] | Defects in chicken embryo development (text and figure legend) [3] | Teratogenicity in these assays [3] | minimal effective concentration [4] [µg/mL] | Effect on neutrophil migration to the wound site (anti-inflammatory activity) [4] | Effect on LPS-induced elevations in TNF-α, cultured RAW 264.7 cells [5] | Eye development / eye diameter in zebrafish embryos ([6]; Figure 4, result in words) | Pectoral fin development / fin length in zebrafish embryos ([6]; Figure 4, result in words) | Lowest effective concentration, WT Zebrafish assay [6] [µg/mL]
O=C1NC(=S)CCC1N1C(=O)c2ccccc2C1=S (stereo not shown) [Compound C2, 2,3-dihydro-2-(2-oxo-6-thioxo-3-piperidinyl)-3-thioxo-1H-isoindol-1-one] | 10 | without anti-angiogenic activities | potently lower lipopolysaccharide (LPS)-induced elevations in TNF-α | 100 | no effect | non-teratogenic | 10 | reduced neutrophil migration; also recorded: significant anti-inflammatory action | potently lower lipopolysaccharide (LPS)-induced elevations in TNF-α | normal eye development | normal | 10
O=C1c2ccccc2C(=O)N1c1nc2ccc(C(F)(F)F)cc2s1 [Compound C59] | 10 | without anti-angiogenic activities | – | – | no effect | non-teratogenic | 100 | reduced neutrophil migration | – | – | – | 100
